# Test results as given in paper PMC10054553, “Development of the First ^18F-Labeled Radiohybrid-Based Minigastrin Derivative with High Target Affinity and Tumor Accumulation by Substitution of the Chelating Moiety” (Pharmaceutics, 2023).
# Tests used:
# [1] = Stability studies in human serum; format: in vitro ADME; conditions: 37 °C, 24 h; for Intact peptide (%): n = 3, 1440 min; for SiOH-containing analog (%): n = 3, analog with hydrolyzed SiFA moiety
# Method: In vitro stability studies in human serum after incubation at 37 °C for 24 h were performed as described in the Supplemental Material.
# Stability Studies in Human Serum. The 177Lu- as well as 67Ga-labeled CCK-2R ligands (1 nmol,
# approx. 5 MBq) were incubated for 24 h in human serum (200 μL) at 37 °C. After incubation, ice-cold
# EtOH (125 μL) and MeCN (375 μL) were added and the suspension was centrifuged for 5 min at
# 5000 rpm. Then, the supernatant was transferred into new vials and centrifuged for another 5 min at
# 5000 rpm. After separating the precipitate from the solution, the stability of the ligands was determined
# CCK-2R = biological target: T1, CCK-2R (Rattus norvegicus, UniProt P30553); test: CCK-2R-mediated internalization on AR42J cells; format: cell-based; conditions: for Internalization Values (%F11N) 6 h: relative to the reference DOTA-PP-F11N; for Internalization Values (%) 1 h / Internalization Values (%) 2 h / Internalization Values (%) 4 h / Internalization Values (%) 6 h: % of applied activity, 37 °C, 0.25 pmol/well, AR42J cells
# T1 construct: CCK-2R-expressing rat pancreatic cancer cells AR42J; host or cells: AR42J (rat pancreatic cancer cells)
# T1 sequence (P30553 1-452): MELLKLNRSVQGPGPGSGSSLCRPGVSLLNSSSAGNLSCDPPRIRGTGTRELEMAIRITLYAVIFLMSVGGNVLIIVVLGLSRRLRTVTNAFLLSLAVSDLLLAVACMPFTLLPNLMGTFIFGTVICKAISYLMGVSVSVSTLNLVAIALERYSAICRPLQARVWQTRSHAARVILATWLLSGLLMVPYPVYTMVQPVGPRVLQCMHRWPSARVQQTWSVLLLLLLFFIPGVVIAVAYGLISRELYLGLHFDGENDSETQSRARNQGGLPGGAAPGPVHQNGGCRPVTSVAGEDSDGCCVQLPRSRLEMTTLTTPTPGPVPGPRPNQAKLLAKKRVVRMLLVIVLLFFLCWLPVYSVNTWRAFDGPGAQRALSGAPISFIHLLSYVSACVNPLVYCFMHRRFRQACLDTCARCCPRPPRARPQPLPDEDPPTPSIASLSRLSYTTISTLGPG
# Method: Figure 3 (a) CCK-2R-mediated internalization (0.25 pmol/well) measured on AR42J cells as percent (%) of applied activity (incubation at 37 °C for 1, 2, 4 and 6 h, RPMI 1640, 5 mm L-Gln, 5 mL non-essential amino acids (100×), 10% FCS + 5% BSA (v/v), 3.0 × 10^5 cells/mL/well). (b) CCK-2R-mediated internalization of [^177Lu]Lu-DOTA-rhCCK-16 (green), [^177Lu]Lu-(R)-DOTAGA-rhCCK-16 (orange), [^177Lu]Lu-DOTA-rhCCK-18 (red) and […] after incubation at 37 °C for 6 h as percent of reference (% of [^177Lu]Lu-DOTA-PP-F11N). * data taken from Holzleitner et al..
# Cell Culture. CCK-2R-expressing rat pancreatic cancer cells AR42J (CLS GmbH, Eppelheim, Germany) were cultivated in monolayers in CELLSTAR® cell culture flasks acquired from Greiner Bio-One GmbH (Frickenhausen, Germany) at 37°C in a humidified atmosphere (5% CO2) using a HERAcell 150i-Incubator (Thermo Fisher Scientific Inc., Waltham, United States). The nutrient medium RPMI 1640 medium, supplemented with 5 mM L-Gln 5 mL non-essential amino acids (100×) and 10% FCS, was used. Furthermore, a Dulbecco’s PBS solution with 0.1% EDTA (v/v) was applied to detach the cells for cell passaging. The detached cells were counted using a Neubauer hemocytometer (Paul Marienfeld, Lauda-Königshofen, Germany). In addition, all operations under sterile conditions were accomplished using a MSC-Advantage safety workbench (Thermo Fisher Scientific Inc., Waltham, United States). […]
# Internalization Studies. For the determination of the internalization kinetics of the various peptides, AR42J cells (3.0 × 10^5 cells/well) were seeded into polylysine-coated 24-well plates, adding 1 mL of nutrient medium. Afterwards, the cells were incubated for 24 ± 2 h at 37°C in a humidified atmosphere […]
# On the day of the experiment, the medium was removed, and each well was washed with nutrient medium (300 μL). Afterwards 200 μL of nutrient medium, 25 μL of the 177Lu-labeled peptide (0.3 pmol, n = 6) and either 25 μL of nutrient medium for internalization studies ( n = 3) or 25 μL of [natLu]Lu-DOTA-PP-F11N (10 μmol) for competition studies ( n = 3) were added. Thereafter, the assay was incubated for various time points (1, 2, 4 and 6 h) at 37°C in a humidified atmosphere (5% CO2). After incubation, the cells were put on ice for at least 1 min to stop internalization kinetics and the supernatant was collected. Then, the cells were washed with an ice-cold nutrient medium (300 μL) and both fractions were unified. In order to displace the peptides from the cell membrane, 300 μL of an ice-cold glycine buffer (1 M, pH = 2.2) were added and the cells were incubated on ice for 15 min. Afterwards, the supernatant was collected, and the cells were washed with an ice-cold glycine buffer (300 μL, 1 M, pH = 2.2) while both fractions were unified. After lysis of the cells with NaOH (300 μL, 1 N) for 15 min, the respective wells were washed with NaOH (300 μL, 1 N) and both fractions were unified. The radioactivity of the supernatant, the acid wash and the lysed fractions were quantified using a γ-counter.
# Lipophilicity Studies. Lipophilicity (depicted as octanol-phosphate-buffered saline solution (PBS, pH = 7.4) distribution coefficient, logD7.4) was determined by dissolving the 177Lu-labelled peptide (approx. 1 MBq) in a mixture (1/1, v/v) of n-octanol and PBS. The suspension was vortexed in a reaction vial (1.5 mL) for 3 min at room temperature and the vial was centrifuged at 9000 rpm for 5 min (Biofuge 15, Heraus Sepatech GmbH, Osterode, Germany). Amounts of 200 μL aliquots of both layers were measured separately in a γ-counter (Perkin Elmer, Waltham, MA, USA). The experiment was repeated […]
# Stability Studies in Human Serum. The 177Lu- as well as 67Ga-labeled CCK-2R ligands (1 nmol, approx. 5 MBq) were incubated for 24 h in human serum (200 μL) at 37 °C. After incubation, ice-cold EtOH (125 μL) and MeCN (375 μL) were added and the suspension was centrifuged for 5 min at […]
# 5000 rpm. […]
# [2] = biological target: Human serum albumin (HSA) (Homo sapiens, UniProt P02768); test: Human serum albumin (HSA) binding, ultracentrifugation method; format: in vitro ADME; conditions: HSA 700 µM in PBS, 37 °C, 30 min, n = 6, corrected for unspecific binding
# Chain of Human serum albumin (HSA) (P02768 25-609): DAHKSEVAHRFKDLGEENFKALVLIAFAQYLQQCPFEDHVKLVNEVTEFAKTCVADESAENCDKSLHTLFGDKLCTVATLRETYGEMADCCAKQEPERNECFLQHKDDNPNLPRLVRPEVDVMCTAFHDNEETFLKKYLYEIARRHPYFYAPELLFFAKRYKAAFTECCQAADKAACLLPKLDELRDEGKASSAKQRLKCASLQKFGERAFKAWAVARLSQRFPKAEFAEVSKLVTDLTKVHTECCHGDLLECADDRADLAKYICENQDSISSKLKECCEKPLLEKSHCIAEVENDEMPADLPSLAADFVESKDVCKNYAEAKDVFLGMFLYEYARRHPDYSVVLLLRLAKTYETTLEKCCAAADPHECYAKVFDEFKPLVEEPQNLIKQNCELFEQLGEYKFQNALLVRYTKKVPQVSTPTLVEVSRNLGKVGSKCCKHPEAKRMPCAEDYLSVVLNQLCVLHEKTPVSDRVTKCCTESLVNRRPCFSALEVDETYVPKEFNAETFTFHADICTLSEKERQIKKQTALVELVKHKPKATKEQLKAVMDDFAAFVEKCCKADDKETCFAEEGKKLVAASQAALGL
# Method: Human serum albumin (HSA) binding was determined in analogy to a previously published ultracentrifugation method. Therefore, the peptides of interest were incubated in a solution of HSA (700 µM in phosphate-buffered saline) at 37 °C for 30 min (n = 6). All values were corrected for unspecific binding.
SMILES,Intact peptide (%) [1] [%],SiOH-containing analog (%) [1] [%],Internalization Values (%F11N) 6 h (CCK-2R) [%F11N],Internalization Values (%) 1 h (CCK-2R) [%],Internalization Values (%) 2 h (CCK-2R) [%],Internalization Values (%) 4 h (CCK-2R) [%],Internalization Values (%) 6 h (CCK-2R) [%],HSA Binding (%) [2] [%],HSA Binding (%) ([2]; listed as [^177Lu]Lu-DOTA-rhCCK-18),SiOH-containing analog (%) ([1]; listed as [177Lu]Lu-DOTA-rhCCK-16)
CCCC[C@H](NC(=O)[C@H](Cc1c[nH]c2ccccc12)NC(=O)CNC(=O)[C@H](Cc1ccc(O)cc1)NC(=O)[C@H](C)NC(=O)CC[C@@H](NC(=O)CC[C@@H](NC(=O)CC[C@@H](NC(=O)CC[C@@H](NC(=O)CC[C@@H](NC(=O)CC[C@@H](NC(=O)CC[C@@H](NC(=O)CC[C@@H](NC(=O)[C@@H](CNC(=O)c1ccc([Si](F)(C(C)(C)C)C(C)(C)C)cc1)NC(=O)CN1CCN(CC(=O)O)CCN(CC(=O)O)CCN(CC(=O)O)CC1)C(=O)O)C(=O)O)C(=O)O)C(=O)O)C(=O)O)C(=O)O)C(=O)O)C(=O)O)C(=O)N[C@@H](CC(=O)O)C(=O)N[C@@H](Cc1ccccc1)C(N)=O [[^19F]F-[^177Lu]Lu-DOTA-rhCCK-18] [metal not drawn],25.3 ± 3.1,67.7 ± 3.1,244 ± 7,15.4 ± 1.4,24.1 ± 1.6,41.6 ± 2.6,54.8 ± 1.5,62.6,62.6,–
"CCCC[C@H](NC(=O)[C@H](Cc1c[nH]c2ccccc12)NC(=O)CNC(=O)[C@H](Cc1ccc(O)cc1)NC(=O)[C@H](C)NC(=O)CC[C@@H](NC(=O)CC[C@@H](NC(=O)CC[C@@H](NC(=O)CC[C@@H](NC(=O)CC[C@@H](NC(=O)CC[C@@H](NC(=O)[C@@H](CNC(=O)c1ccc([Si](F)(C(C)(C)C)C(C)(C)C)cc1)NC(=O)CN1CCN(CC(=O)O)CCN(CC(=O)O)CCN(CC(=O)O)CC1)C(=O)O)C(=O)O)C(=O)O)C(=O)O)C(=O)O)C(=O)O)C(=O)N[C@@H](CC(=O)O)C(=O)N[C@@H](Cc1ccccc1)C(N)=O [[^177Lu]Lu-DOTA-rhCCK-16, metal not drawn]",21.8 ± 0.8,–,215 ± 7,19.5 ± 2.3,33.1 ± 1.7,43.9 ± 0.7,51.1 ± 1.7,89.1,–,69.1 ± 1.0
